Values of other authors in patent US9333171B2, “Controlled-release CNS modulating compositions and methods for the treatment of otic disorders” (Otonomy, Inc., priority 2008, dated 2016).

What was measured:
V2-R = details: infusion into the scala tympani
guinea pigs = details: chronic administration in guinea pigs

Compound | Effect on Meniere's disease symptoms (V2-R) | Induction of endolymphatic hydrops (guinea pigs)
Cc1ccccc1C(=O)Nc1ccc(C(=O)N2CCCC(N(C)C)c3ccccc32)cc1 (centres unmarked) [OPC-31260] | marked reduction of Meniere's disease symptoms | –
NC(=O)CC[C@@H]1NC(=O)[C@H](Cc2ccccc2)NC(=O)[C@H](Cc2ccc(O)cc2)NC(=O)[C@@H](N)CSSC[C@@H](C(=O)N2CCC[C@H]2C(=O)N[C@@H](CCCN=C(N)N)C(=O)NCC(N)=O)NC(=O)[C@H](CC(N)=O)NC1=O [VP, vasopressin] | – | induce endolymphatic hydrops
